Reference: PubChem BioAssay AID308 (DTP/NCI, 2004)
“And” between values parts separate entries of the source, which are not always exact repeats. Identical values can stand only once. Inconclusive results and toxic doses are left out.

System: BDF1 mice, L1210 6-MP/6-TG resistant leukemia ip, survival T/C
Assay: NCI In Vivo Anticancer Drug Screen. Data for tumor model L1210 Leukemia resistant to 6-MP and 6-Thioguanine; NSC 755, NSC 752 (intraperitoneal) in B6D2F1 (BDF1) mice
Conditions: endpoint: mean survival time, higher = longer survival
Description: The antitumor activity of compounds was measured in mice bearing transplantable tumors. Survival or tumor size were measured and the results are expressed as the measurement made in the treated group (T) divided by the measurement made in the vehicle treated control group (C). The tumor model used in this assay is L1210 Leukemia resistant to 6-MP and 6-Thioguanine; NSC 755, NSC 752 (intraperitoneal) in B6D2F1 (BDF1) mice

[1] = dose: 25.0 mg/kg/injection, schedule: Q01DX Z (ip), vehicle: carboxymethylcellulose (CMC)
[2] = dose: 50.0 mg/kg/injection, schedule: Q01DX Z (ip), vehicle: carboxymethylcellulose (CMC)
[3] = dose: 100.0 mg/kg/injection, schedule: Q01DX Z (ip), vehicle: carboxymethylcellulose (CMC)
[4] = dose: 200.0 mg/kg/injection, schedule: Q01DX Z (ip), vehicle: carboxymethylcellulose (CMC)

Structure (SMILES): CSc1ncnc2c1ncn2C1OC(CO)C(O)C1O (stereo unspecified)
- T/C (dose: 2.0 mg/kg/injection, schedule: Q01DX Z (ip), vehicle: saline): 117 % of control
- T/C (dose: 3.0 mg/kg/injection, schedule: Q01DX015 (ip), vehicle: saline): 119 % of control and 121 % of control
- T/C (dose: 4.0 mg/kg/injection, schedule: Q01DX Z (oral), vehicle: saline): 100 % of control
- T/C (dose: 7.0 mg/kg/injection, schedule: Q01DX015 (ip), vehicle: saline): 158 % of control
- T/C (dose: 7.0 mg/kg/injection, schedule: Q01DX Z (ip), vehicle: saline): 151 % of control
- T/C (dose: 8.0 mg/kg/injection, schedule: Q01DX Z (ip), vehicle: saline): 168 % of control
- T/C (dose: 8.0 mg/kg/injection, schedule: Q01DX Z (oral), vehicle: saline): 107 % of control
- T/C (dose: 10.0 mg/kg/injection, schedule: Q## X032 (ip), vehicle: saline): 114 % of control
- T/C (dose: 12.0 mg/kg/injection, schedule: Q01DX001 (ip), vehicle: alkali diluted with saline): 102 % of control and 103 % of control
- T/C (dose: 12.0 mg/kg/injection, schedule: Q01DX Z (ip), vehicle: saline): 175 % of control
- T/C (dose: 12.0 mg/kg/injection, schedule: Q01DX Z (oral), vehicle: saline): 100 % of control
- T/C (dose: 13.0 mg/kg/injection, schedule: Q02DX008 (ip), vehicle: saline): 122 % of control
- T/C (dose: 13.0 mg/kg/injection, schedule: Q## X004 (ip), vehicle: saline): 108 % of control
- T/C (dose: 16.0 mg/kg/injection, schedule: Q01DX015 (ip), vehicle: saline): 152 % of control and 166 % of control
- T/C (dose: 16.0 mg/kg/injection, schedule: Q01DX Z (ip), vehicle: clinical formulation): 123 % of control
- T/C (dose: 16.0 mg/kg/injection, schedule: Q01DX Z (ip), vehicle: saline): 191 % of control
- T/C (dose: 16.0 mg/kg/injection, schedule: Q01DX Z (oral), vehicle: saline): 111 % of control
- T/C (dose: 18.0 mg/kg/injection, schedule: Q01DX001 (ip), vehicle: alkali diluted with saline): 116 % of control and 103 % of control
- T/C (dose: 18.0 mg/kg/injection, schedule: Q01DX001 (ip), vehicle: saline): 112 % of control and 98 % of control
- T/C (dose: 21.0 mg/kg/injection, schedule: Q01DX015 (ip), vehicle: saline): 159 % of control
- T/C (dose: 24.0 mg/kg/injection, schedule: Q01DX015 (ip), vehicle: saline): 163 % of control
- T/C (dose: 24.0 mg/kg/injection, schedule: Q01DX Z (ip), vehicle: saline): 119 % of control
- T/C (dose: 24.0 mg/kg/injection, schedule: Q01DX Z (oral), vehicle: saline): 113 % of control and 120 % of control
- T/C (dose: 24.0 mg/kg/injection, schedule: Q## X032 (ip), vehicle: saline): 150 % of control
- T/C (dose: 26.0 mg/kg/injection, schedule: Q01DX001 (ip), vehicle: alkali diluted with saline): 118 % of control and 111 % of control
- T/C (dose: 26.0 mg/kg/injection, schedule: Q01DX001 (ip), vehicle: saline): 104 % of control
- T/C (dose: 27.0 mg/kg/injection, schedule: Q01DX001 (ip), vehicle: saline): 114 % of control and 108 % of control
- T/C (dose: 32.0 mg/kg/injection, schedule: Q01DX Z (ip), vehicle: saline): 121 % of control
- T/C (dose: 32.0 mg/kg/injection, schedule: Q01DX Z (oral), vehicle: saline): 120 % of control and 106 % of control
- T/C (dose: 32.0 mg/kg/injection, schedule: Q## X032 (ip), vehicle: saline): 152 % of control and 158 % of control
- T/C (dose: 36.0 mg/kg/injection, schedule: Q01DX015 (ip), vehicle: saline): 114 % of control
- T/C (dose: 37.0 mg/kg/injection, schedule: Q01DX Z (ip), vehicle: saline): 95 % of control
- T/C (dose: 40.0 mg/kg/injection, schedule: Q01DX001 (ip), vehicle: alkali diluted with saline): 119 % of control and 106 % of control
- T/C (dose: 40.0 mg/kg/injection, schedule: Q01DX001 (ip), vehicle: saline): 117 % of control and 98 % of control and 108 % of control
- T/C (dose: 44.0 mg/kg/injection, schedule: Q02DX008 (ip), vehicle: saline): 158 % of control
- T/C (dose: 45.0 mg/kg/injection, schedule: Q01DX015 (ip), vehicle: saline): 92 % of control and 94 % of control
- T/C (dose: 45.0 mg/kg/injection, schedule: Q## X004 (ip), vehicle: saline): 157 % of control
- T/C (dose: 48.0 mg/kg/injection, schedule: Q01DX Z (ip), vehicle: saline): 96 % of control
- T/C (dose: 48.0 mg/kg/injection, schedule: Q01DX Z (oral), vehicle: saline): 95 % of control and 103 % of control
- T/C (dose: 48.0 mg/kg/injection, schedule: Q## X032 (ip), vehicle: saline): 164 % of control and 171 % of control
- T/C (dose: 50.0 mg/kg/injection, schedule: Q01DX Z (ip), vehicle: saline): 90 % of control
- T/C (dose: 54.0 mg/kg/injection, schedule: Q01DX001 (ip), vehicle: saline): 109 % of control
- T/C (dose: 60.0 mg/kg/injection, schedule: Q01DX001 (ip), vehicle: saline): 119 % of control and 107 % of control
- T/C (dose: 61.0 mg/kg/injection, schedule: Q01DX001 (ip), vehicle: alkali diluted with saline): 113 % of control
- T/C (dose: 61.0 mg/kg/injection, schedule: Q01DX001 (ip), vehicle: saline): 113 % of control
- T/C (dose: 67.0 mg/kg/injection, schedule: Q## X004 (ip), vehicle: saline): 162 % of control
- T/C (dose: 72.0 mg/kg/injection, schedule: Q## X032 (ip), vehicle: saline): 165 % of control and 166 % of control
- T/C (dose: 81.0 mg/kg/injection, schedule: Q01DX001 (ip), vehicle: saline): 124 % of control
- T/C (dose: 90.0 mg/kg/injection, schedule: Q01DX001 (ip), vehicle: saline): 109 % of control
- T/C (dose: 92.0 mg/kg/injection, schedule: Q01DX001 (ip), vehicle: alkali diluted with saline): 123 % of control and 111 % of control
- T/C (dose: 100.0 mg/kg/injection, schedule: Q02DX008 (ip), vehicle: saline): 99 % of control
- T/C (dose: 100.0 mg/kg/injection, schedule: Q## X004 (ip), vehicle: saline): 170 % of control
- T/C (dose: 108.0 mg/kg/injection, schedule: Q## X032 (ip), vehicle: saline): 116 % of control and 98 % of control
- T/C (dose: 138.0 mg/kg/injection, schedule: Q01DX001 (ip), vehicle: alkali diluted with saline): 116 % of control
- T/C (dose: 138.0 mg/kg/injection, schedule: Q01DX001 (ip), vehicle: saline): 118 % of control
- T/C (dose: 150.0 mg/kg/injection, schedule: Q## X004 (ip), vehicle: saline): 164 % of control
- T/C (dose: 207.0 mg/kg/injection, schedule: Q01DX001 (ip), vehicle: alkali diluted with saline): 119 % of control and 124 % of control
- T/C (dose: 300.0 mg/kg/injection, schedule: Q01DX001 (ip), vehicle: saline): 111 % of control

Structure (SMILES): CN(C)c1nc(N(C)C)nc(N(C)C)n1
- T/C (dose: 4.3 mg/kg/injection, schedule: Q01DX Z (ip), vehicle: other): 101 % of control
- T/C (dose: 8.7 mg/kg/injection, schedule: Q01DX Z (ip), vehicle: other): 111 % of control
- T/C (dose: 17.5 mg/kg/injection, schedule: Q01DX Z (ip), vehicle: other): 109 % of control
- T/C (dose: 35.0 mg/kg/injection, schedule: Q01DX Z (ip), vehicle: other): 111 % of control
- T/C (dose: 50.0 mg/kg/injection, schedule: Q01DX Z (ip), vehicle: other): 110 % of control
- T/C (dose: 100.0 mg/kg/injection, schedule: Q01DX Z (ip), vehicle: other): 98 % of control

Structure (SMILES): CC(=O)OCC1OC(n2cnc3c(=S)nc[nH]c32)C(OC(C)=O)C1OC(C)=O (stereo unspecified)
- T/C [1]: 104 % of control
- T/C [2]: 111 % of control
- T/C [3]: 108 % of control
- T/C [4]: 98 % of control

Structure (SMILES): CSc1ncnc2c1ncn2CO
- T/C (dose: 50.0 mg/kg/injection, schedule: Q01DX009 (ip), vehicle: other): 104 % of control
- T/C (dose: 100.0 mg/kg/injection, schedule: Q01DX009 (ip), vehicle: other): 110 % of control

Structure (SMILES): Cn1c(O)c(N=NC(N)=S)c2ccccc21
- T/C [1]: 100 % of control
- T/C [2]: 105 % of control
- T/C [3]: 104 % of control
- T/C [4]: 88 % of control

Structure (SMILES): N=C(N)c1ccc(Nc2ccc(C(=N)N)cc2)cc1
- T/C (dose: 2.0 mg/kg/injection, schedule: Q01DX Z (ip), vehicle: water): 112 % of control
- T/C (dose: 4.0 mg/kg/injection, schedule: Q01DX Z (ip), vehicle: water): 102 % of control
- T/C (dose: 6.0 mg/kg/injection, schedule: Q01DX Z (ip), vehicle: water): 104 % of control
- T/C (dose: 8.0 mg/kg/injection, schedule: Q01DX Z (ip), vehicle: water): 106 % of control
- T/C (dose: 9.37 mg/kg/injection, schedule: Q01DX Z (ip), vehicle: water): 104 % of control
- T/C (dose: 18.75 mg/kg/injection, schedule: Q01DX Z (ip), vehicle: water): 100 % of control

Structure (SMILES): CCOC(=O)NP(=O)(N1CC1(C)C)N1CC1(C)C (stereo unspecified)
- T/C (dose: 31.0 mg/kg/injection, schedule: Q01DX Z (ip), vehicle: saline): 113 % of control
- T/C (dose: 62.0 mg/kg/injection, schedule: Q01DX Z (ip), vehicle: saline): 160 % of control
- T/C (dose: 62.5 mg/kg/injection, schedule: Q01DX Z (ip), vehicle: saline): 228 % of control
- T/C (dose: 93.0 mg/kg/injection, schedule: Q01DX Z (ip), vehicle: saline): 182 % of control
- T/C (dose: 125.0 mg/kg/injection, schedule: Q01DX Z (ip), vehicle: saline): 160 % of control and 207 % of control
- T/C (dose: 187.0 mg/kg/injection, schedule: Q01DX Z (ip), vehicle: saline): 207 % of control
